# Reference: patent publication US11046716B2, “Beta-lactamase inhibitors” (priority 2015, dated 2021)
# Columns and labels:
# OXA-48 = OXA-48 (UniProt Q6XEC0); experiment: β-lactamase enzyme inhibition assay, Class D oxacillinase; assay type: biochemical; conditions: read-out: OXA-48
# [1] = system: K. pneumoniae producing the Class D carbapenemase OXA-48; experiment: Broth microdilution MIC assay with meropenem, K. pneumoniae OXA-48; assay type: cell-based; conditions: Fixed Mero (meropenem) 4 μg/mL; K. p. 11978 OXA-48
# Text: (§1) To determine the ability of test compounds to potentiate the inhibition of the growth of bacterial strains that produce beta-lactamase enzymes in the presence of a β-lactam antibiotic, classic cell based broth microdilution MIC assays were employed. Six bacteria strains producing beta-lactamase enzymes were used: E. coli expressing the Class A Extended Spectrum Beta-Lactamase (ESBL) CTX-M-15, E. cloacae expressing the Class C P99, K. pneumoniae expressing the Class A carbapenemase KPC-2, P. aeruginosa expressing the Class B carbapenemase VIM-2, K. pneumoniae expressing the class A carbapenemase KPC-2 and the class B carbapenemase VIM-4, and K. pneumoniae producing the Class D carbapenemase OXA-48. The assay was conducted in Cation Adjusted Mueller Hinton Broth (CAMHB, BD #212322, BD Diagnostic Systems, Sparks, Md.). Bacteria strains were grown for 3-5 hours in CAMBH broth. Test compounds (Examples 1-94) were added to a microtiter plate in 2-fold serial dilutions in CAMHB in a final concentration range of 16 μg/mL to 0.125 μg/ml. An overlay of CAMHB containing a Beta-lactam was added to the compounds at a final static concentration of 4 μg/ml. […] In addition to the titration of test compounds the MICs of a panel of control beta-lactams is also tested to ensure the strains are behaving consistently from test to test. Once the test compound and antibiotics are added the plates can be inoculated according to CLSI broth microdilution method. After inoculation the plates are incubated for 16-20 hours at 37° C. then the Minimal Inhibitory Concentration (MIC) of the test compound is determined visually.
# (§2) Using the methodology described above, examples of the current invention were evaluated for their ability to inhibit the growth of β-lactamase-producing bacteria in the presence of a β-lactam antibiotic.
# [2] = system: K. pneumoniae expressing the class A carbapenemase KPC-2 and the class B carbapenemase VIM-4; experiment: Broth microdilution MIC assay with meropenem, K. pneumoniae KPC-2 and VIM-4; assay type: cell-based; conditions: Fixed Mero (meropenem) 4 μg/mL; K. p. A-1797 KPC-2 VIM-4
# Text: as §1, §2
# [3] = system: K. pneumoniae expressing the Class A carbapenemase KPC-2; experiment: Broth microdilution MIC assay with meropenem, K. pneumoniae KPC-2; assay type: cell-based; conditions: Fixed Mero (meropenem) 4 μg/mL; K. p. 156319 KPC-3
# Text: as §1, §2
# [4] = system: P. aeruginosa expressing the Class B carbapenemase VIM-2; experiment: Broth microdilution MIC assay with meropenem, P. aeruginosa VIM-2; assay type: cell-based; conditions: Fixed Mero (meropenem) 4 μg/mL; P. aerug. 2775 VIM-2
# Text: as §1, §2
# SHV-5 = biological target: T1, SHV-5 (Klebsiella pneumoniae, UniProt P0A3M1); experiment: β-lactamase enzyme inhibition assay, SHV-5 (cefotaxime substrate); assay type: biochemical
# T1 construct: made in house; host or cells: E. coli BL21(DE3)
# T1 sequence (P0A3M1 22-286): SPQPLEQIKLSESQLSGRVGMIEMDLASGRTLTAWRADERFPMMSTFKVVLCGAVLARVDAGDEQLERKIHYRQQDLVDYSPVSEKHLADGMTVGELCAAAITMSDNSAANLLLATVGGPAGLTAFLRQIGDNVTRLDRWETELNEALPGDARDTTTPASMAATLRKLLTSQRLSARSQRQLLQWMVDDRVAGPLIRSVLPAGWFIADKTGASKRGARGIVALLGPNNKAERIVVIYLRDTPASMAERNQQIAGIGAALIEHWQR
# Procedure: (§3) For SHV-5, Kpc-2, p99AmpC and OXA-1 β-lactamases, E. coli BL21(DE3) bacterial cells carrying expression plasmids (expressed as native untagged proteins) for the individual β-lactamases were grown in 1 L of Superbroth (Teknova Inc. Hollister, Calif.) supplemented with 100 μg/ml kanamycin selection and 1×5052 (0.5% glycerol, 0.05% glucose and 0.2% α-lactose) at 35° C. for 18-20 hours. Cells were harvested by centrifugation (4,000×g, 4° C., 20 min), resuspended in 50 ml of 10 mM HEPES pH 7.5 ( 1/20 of the initial volume). The cells were lysed by sonication (5 pulses of 45 seconds) at 45 W on ice. The lysates were clarified by centrifugation at 10,000×g for 40 minutes at 4° C. Samples were diluted 5-fold in 50 mM sodium acetate pH 5.0, stored overnight at 4° C., after which they were centrifuged at 10,000×g for 30 minutes to clarify, and filtered through 0.45 μm filters. The samples were loaded onto a 5 ml Capto S sepharose cation exchange column (GE Healthcare) pre-equilibrated with 50 mM sodium acetate pH 5.0. The column was washed with 5 column volumes of 50 mM sodium acetate pH 5.0 to wash out unbound protein and a linear gradient of NaCl (0 to 500 mM) was used to elute the protein (over 16 CV) from the column. Fractions were assayed for β-lactamase activity using Centa (Calbiochem, Gibbstown, N.J.) or Nitrocefin (EMD Millipore chemicals, Darmstadt, Germany) as a reporter β-lactamase substrate for activity in the isolated fractions. Active fractions were pooled, concentrated and further purified by gel filtration chromatography on a Superdex 75 prep grade gel filtration column (GE Healthcare, Piscataway, N.J.) pre-equilibrated in 50 mM Hepes pH 7.5, 150 mM NaCl. Active fractions were pooled concentrated, quantitated by BCA protein determination (Thermo Scientific, Rockford, Ill.), dialyzed into PBS and frozen at −80° C. in 20% glycerol until use.
# (§4) An equal volume of diluted enzyme stock was added, and the plates were incubated at 37° C. for 15 min. Nitrocefin was used as substrate for p99 AmpC, VIM-2 and OXA-1 and dispensed into each well at a final concentration of 100 μM. Absorbance at 486 nm was immediately monitored for 10 min using a Biotek Powerwave XS2 microplate spectrophotometer using the GEN5 software package (Biotek Instruments, Winooski Vt.). In an analogous fashion, imipenem was used as substrate for Kpc-2 and Cefotaxime was used for SHV-5, while changes in absorbance upon hydrolysis of the β-lactam ring were monitored at 300 nm and 260 nm respectively in UV-transparent 96-well microtiter assay plates. Maximum rates of hydrolysis were compared to those in control wells (without inhibitors), and percentages of enzyme inhibition were calculated for each concentration of inhibitor. The concentration of inhibitor needed to reduce the initial rate of hydrolysis of substrate by 50% (IC50) was calculated as the residual activity of β-lactamase at 486 nm using GraFit version 7 kinetics software package (Erithacus Software, Surrey, UK).
# (§5) Using the methodology described above, examples of the current invention were evaluated for their ability to inhibit β-lactamase enzymes from all four Ambler classifications (A through D). […] NT=Not tested.
# VIM-2 = biological target: T2, VIM-2 (Escherichia coli, UniProt Q5U7L7); experiment: β-lactamase enzyme inhibition assay, VIM-2 (nitrocefin substrate); assay type: biochemical; conditions: Class B; nitrocefin substrate, 486 nm; read-out: VIM-2
# T2 construct: made in house; host or cells: E. coli BL21(DE3)
# Procedure: For Vim-2 metallo β-lactamase, the procedure was identical with the following exceptions, first the protein was not pH adjusted to pH 5 with 50 mM sodium acetate, second, the chromatography step was changed to a 5 ml Q sepharose anion exchange column pre-equilibrated with 50 mM Hepes pH 7.5, and elution of the protein was achieved by a linear gradient of NaCl (0-600 mM). Finally, the VIM-2 purification required a second run (3rd step) on the Q sepharose anion exchange column to achieve acceptable purity (>90%).
# as §4, §5
# AmpC = biological target: T3, AmpC (Enterobacter cloacae, UniProt P05364); experiment: β-lactamase enzyme inhibition assay, p99 AmpC (nitrocefin substrate); assay type: biochemical
# T3 construct: made in house; host or cells: E. coli BL21(DE3)
# T3 sequence (P05364 21-381): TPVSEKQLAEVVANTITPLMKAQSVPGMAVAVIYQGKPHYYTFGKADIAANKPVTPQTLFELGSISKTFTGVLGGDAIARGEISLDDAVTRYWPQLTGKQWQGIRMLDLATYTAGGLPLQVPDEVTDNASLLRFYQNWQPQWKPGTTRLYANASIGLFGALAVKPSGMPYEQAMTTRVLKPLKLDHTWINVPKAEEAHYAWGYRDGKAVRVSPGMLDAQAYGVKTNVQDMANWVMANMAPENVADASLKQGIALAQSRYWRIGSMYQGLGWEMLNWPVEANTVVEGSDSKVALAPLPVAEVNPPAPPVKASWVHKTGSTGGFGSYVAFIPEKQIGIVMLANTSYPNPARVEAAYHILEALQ
# Procedure: as §3, §4, §5
# KPC-2 = biological target: T4, KPC-2 (Klebsiella pneumoniae, UniProt Q9F663); experiment: β-lactamase enzyme inhibition assay, KPC-2 (imipenem substrate); assay type: biochemical; conditions: Class A; imipenem substrate, 300 nm; read-out: KPC-2
# T4 construct: made in house; host or cells: E. coli BL21(DE3)
# T4 sequence (Q9F663 25-293, looked up): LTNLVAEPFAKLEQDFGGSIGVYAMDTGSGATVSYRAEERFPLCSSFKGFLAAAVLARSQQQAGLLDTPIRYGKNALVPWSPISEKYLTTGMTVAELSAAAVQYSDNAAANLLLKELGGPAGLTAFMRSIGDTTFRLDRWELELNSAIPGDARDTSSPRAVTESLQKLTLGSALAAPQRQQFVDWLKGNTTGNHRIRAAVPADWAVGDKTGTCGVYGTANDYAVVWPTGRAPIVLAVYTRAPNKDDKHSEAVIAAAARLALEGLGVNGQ
# Procedure: as §3, §4, §5
# [5] = system: E. coli expressing the Class A Extended Spectrum Beta-Lactamase (ESBL) CTX-M-15; experiment: Broth microdilution MIC assay with ceftazidime, E. coli CTX-M-15; assay type: cell-based; conditions: Fixed CAZ (ceftazidime) 4 μg/mL; E. coli ESBL4 CTX-M-15
# Text: as §1, §2
SMILES,IC50 (OXA-48) [nM],MIC (μg/mL) of Exemplary Compounds in presence of fixed β-lactams: K. p. 11978 OXA-48 [1],MIC (μg/mL) of Exemplary Compounds in presence of fixed β-lactams: K. p. A-1797 KPC-2 VIM-4 [2],MIC (μg/mL) of Exemplary Compounds in presence of fixed β-lactams: K. p. 156319 KPC-3 [3],MIC (μg/mL) of Exemplary Compounds in presence of fixed β-lactams: P. aerug. 2775 VIM-2 [4],IC50 (SHV-5) [nM],IC50 (VIM-2) [nM],IC50 (AmpC) [nM],IC50 (KPC-2) [nM],MIC (μg/mL) of Exemplary Compounds in presence of fixed β-lactams: E. coli ESBL4 CTX-M-15 [5]
"NCCCc1c(CN)nnn1CC(=O)N[C@H]1Cc2cccc(C(=O)O)c2OB1O [Example 110, (R)-3-(2-(4-(aminomethyl)-5-(3-aminopropyl)-1H-1,2,3-triazol-1-yl)acetamido)-2-hydroxy-3,4-dihydro-2H-benzo[e][1,2]oxaborinine-8-carboxylic acid]",100 to 1000,B (B represents an MIC between 1 and 16 μg/mL inclusive),C (C represents an MIC of <1 μg/mL),C (C represents an MIC of <1 μg/mL),C (C represents an MIC of <1 μg/mL),1000 to 10000,< 100,100 to 1000,100 to 1000,C (C represents an MIC of <1 μg/mL)
"O=C(Cn1cc(CF)nn1)N[C@H]1Cc2cccc(C(=O)O)c2OB1O [Example 111, (R)-3-(2-(4-(fluoromethyl)-1H-1,2,3-triazol-1-yl)acetamido)-2-hydroxy-3,4-dihydro-2H-benzo[e][1,2]oxaborinine-8-carboxylic acid]",100 to 1000,B (B represents an MIC between 1 and 16 μg/mL inclusive),B (B represents an MIC between 1 and 16 μg/mL inclusive),B (B represents an MIC between 1 and 16 μg/mL inclusive),B (B represents an MIC between 1 and 16 μg/mL inclusive),< 100,1000 to 10000,< 100,< 100,C (C represents an MIC of <1 μg/mL)
"O=C(Cn1cc(CNCCCC(F)(F)F)nn1)N[C@H]1Cc2cccc(C(=O)O)c2OB1O [Example 112, (R)-2-hydroxy-3-(2-(4-(((4,4,4-trifluorobutyl)amino)methyl)-1H-1,2,3-triazol-1-yl)acetamido)-3,4-dihydro-2H-benzo[e][1,2]oxaborinine-8-carboxylic acid]",100 to 1000,A (A represents an MIC>16 μg/mL),B (B represents an MIC between 1 and 16 μg/mL inclusive),B (B represents an MIC between 1 and 16 μg/mL inclusive),C (C represents an MIC of <1 μg/mL),100 to 1000,100 to 1000,< 100,100 to 1000,C (C represents an MIC of <1 μg/mL)
"O=C(Cn1ccc(B(O)O)n1)N[C@H]1Cc2cccc(C(=O)O)c2OB1O [Example 116, (R)-3-(2-(3-borono-1H-pyrazol-1-yl)acetamido)-2-hydroxy-3,4-dihydro-2H-benzo[e][1,2]oxaborinine-8-carboxylic acid]",100 to 1000,B (B represents an MIC between 1 and 16 μg/mL inclusive),B (B represents an MIC between 1 and 16 μg/mL inclusive),B (B represents an MIC between 1 and 16 μg/mL inclusive),C (C represents an MIC of <1 μg/mL),< 100,1000 to 10000,< 100,< 100,C (C represents an MIC of <1 μg/mL)
"NCCn1cc(CC(=O)N[C@H]2Cc3cccc(C(=O)O)c3OB2O)nn1 [Example 122, (R)-3-(2-(1-(2-aminoethyl)-1H-1,2,3-triazol-4-yl)acetamido)-2-hydroxy-3,4-dihydro-2H-benzo[e][1,2]oxaborinine-8-carboxylic acid]",100 to 1000,B (B represents an MIC between 1 and 16 μg/mL inclusive),B (B represents an MIC between 1 and 16 μg/mL inclusive),B (B represents an MIC between 1 and 16 μg/mL inclusive),C (C represents an MIC of <1 μg/mL),< 100,100 to 1000,< 100,< 100,C (C represents an MIC of <1 μg/mL)
